Patent US10294234B2, “HIV inhibitor compounds” (priority 2017, dated 2019)
Where two headings read alike, the source gives them in different places.

Tested on: HIV-1 (IIIB) in MT-4 cells
Assay: MT-4 HIV assay
Type: cell-based
Procedure, shortened: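 Antiviral activity was read by Cell Titer Glo after a 5-day, 37 °C culture of MT-4 cells pre-infected with a 1:250 dilution of HIV-1 (IIIB). Compounds were tested as threefold dilution series in complete RPMI. Controls were no drug, mock infection and 5 uM AZT.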

[1] = Human immunodeficiency virus 1, MT4, 120 h, HIV-1 (IIIB), MT-4 cells, 5 days, Cell Titer Glo, read-out: EC50

Row | Compound | EC50 [1] | further results
1 | COC(=O)N[C@H](C(=O)N[C@@H](Cc1ccc(C#Cc2nc(N3CC4CCC(C3)N4C3COC3)nc(N3C[C@H]4CC[C@@H](C3)N4C3COC3)n2)cc1)[C@@H](O)CN(Cc1c(F)cc(-c2ccn(C(F)F)n2)cc1F)NC(=O)[C@@H](NC(=O)OC)C(C)(C)C(F)(F)F)C(C)(C)C(F)(F)F [Example 49, Methyl ((5S,8S,9S,14S)-11-(4-(1-(difluoromethyl)-1H-pyrazol-3-yl)-2,6-difluorobenzyl)-16,16,16-trifluoro-9-hydroxy-15,15-dimethyl-8-(4-((4-((1R,5S)-8-(oxetan-3-yl)-3,8-diazabicyclo[3.2.1]octan-3-yl)-6-(8-(oxetan-3-yl)-3,8-diazabicyclo[3.2.1]octan-3-yl)-1,3,5-triazin-2-yl)ethynyl)benzyl)-3,6,13-trioxo-5-(1,1,1-trifluoro-2-methylpropan-2-yl)-2-oxa-4,7,11,12-tetraazahexadecan-14-yl)carbamate] | 37.3 nM | –
2 | methyl ((5S,8S,9S,14S)-11-(2-chloro-6-fluoro-(pyridin-2-yl)benzyl)-16-fluoro-5-(1-fluoro-2-methylpropan-2-yl)-9-hydroxy-15,15-dimethyl-3,6,13-trioxo-8-(4-((6-(8-(2,2,2-trifluoroethyl)-3,8-diazabicyclo[3.2.1]octan-3-yl)pyridin-3-yl)ethynyl)benzyl)-2-oxa-4,7,11,12-tetraazahexadecan-14-yl)carbamate [Example 244] | – | EC50 (HIV-1 (IIIB), MT-4 cells, 5 days, Cell Titer Glo, read-out: EC50): 19.5 nM
3 | COC(=O)N[C@H](C(=O)N[C@@H](Cc1ccc(C#Cc2cnc(N3CC4CCC(C3)N4C3COC3)c(C)c2)cc1)[C@@H](O)CN(Cc1c(F)cc(-c2ccn(C(F)F)n2)cc1F)NC(=O)[C@@H](NC(=O)OC)C(C)(C)C(F)(F)F)C(C)(C)C(F)(F)F [Example 150, Methyl ((5S,8S,9S,14S)-11-(4-(1-(difluoromethyl)-1H-pyrazol-3-yl)-2,6-difluorobenzyl)-16,16,16-trifluoro-9-hydroxy-15,15-dimethyl-8-(4-((5-methyl-6-(8-(oxetan-3-yl)-3,8-diazabicyclo[3.2.1]octan-3-yl)pyridin-3-yl)ethynyl)benzyl)-3,6,13-trioxo-5-(1,1,1-trifluoro-2-methylpropan-2-yl)-2-oxa-4,7,11,12-tetraazahexadecan-14-yl)carbamate] | 5.86 nM | –
4 | COC(=O)N[C@H](C(=O)N[C@@H](Cc1ccc(C#Cc2ccc(N3CCN(C4CCOCC4)CC3)nc2)cc1)[C@@H](O)CN(Cc1c(F)cc(-c2ccn(C(F)F)n2)cc1F)NC(=O)[C@@H](NC(=O)OC)C(C)(C)C(F)(F)F)C(C)(C)C(F)(F)F [Example 104, Methyl ((5S,8S,9S,14S)-11-(4-(1-(difluoromethyl)-1H-pyrazol-3-yl)-2,6-difluorobenzyl)-16,16,16-trifluoro-9-hydroxy-15,15-dimethyl-3,6,13-trioxo-8-(4-((6-(4-(tetrahydro-2H-pyran-4-yl)piperazin-1-yl)pyridin-3-yl)ethynyl)benzyl)-5-(1,1,1-trifluoro-2-methylpropan-2-yl)-2-oxa-4,7,11,12-tetraazahexadecan-14-yl)carbamate] | 4.97 nM | –
5 | COC(=O)N[C@H](C(=O)N[C@@H](Cc1ccc(C#Cc2ccc(N3CC4CCC(C3)N4C3COC3)nc2)cc1)[C@@H](O)CN(Cc1ccc(-c2ccccn2)cc1Cl)NC(=O)[C@@H](NC(=O)OC)C(C)(C)C(F)(F)F)C(C)(C)C(F)(F)F [Example 148, Methyl ((5S,8S,9S,14S)-11l-(2-chloro-4-(pyridin-2-yl)benzyl)-16,16,16-trifluoro-9-hydroxy-15,15-dimethyl-8-(4-((6-(8-(oxetan-3-yl)-3,8-diazabicyclo[3.2.1]octan-3-yl)pyridin-3-yl)ethynyl)benzyl)-3,6,13-trioxo-5-(1,1,1-trifluoro-2-methylpropan-2-yl)-2-oxa-4,7,11,12-tetraazahexadecan-14-yl)carbamate] | 6.95 nM | –
6 | COC(=O)N[C@H](C(=O)N[C@@H](Cc1ccc(C#Cc2ccc3nc(N4CC5CCC(C4)N5C4COC4)ccc3n2)cc1)[C@@H](O)CN(Cc1c(F)cc(-c2ccn(C(F)F)n2)cc1F)NC(=O)[C@@H](NC(=O)OC)C(C)(C)C(F)(F)F)C(C)(C)C(F)(F)F [Example 47, Methyl ((5S,8S,9S,14S)-11-(4-(1-(difluoromethyl)-1H-pyrazol-3-yl)-2,6-difluorobenzyl)-16,16,16-trifluoro-9-hydroxy-15,15-dimethyl-8-(4-((6-(8-(oxetan-3-yl)-3,8-diazabicyclo[3.2.1]octan-3-yl)-1,5-naphthyridin-2-yl)ethynyl)benzyl)-3,6,13-trioxo-5-(1,1,1-trifluoro-2-methylpropan-2-yl)-2-oxa-4,7,11,12-tetraazahexadecan-14-yl)carbamate] | 7.18 nM | –
7 | COC(=O)N[C@H](C(=O)N[C@@H](Cc1ccc(-c2ccc(N3C[C@H]4C[C@@H]3CN4C3COC3)nc2)cc1)[C@@H](O)CN(Cc1c(F)cc(-c2ccn(C(F)F)n2)cc1F)NC(=O)[C@@H](NC(=O)OC)C(C)(C)C(F)(F)F)C(C)(C)C(F)(F)F [Example 196, Methyl ((5S,8S,9S,14S)-11-(4-(1-(difluoromethyl)-1H-pyrazol-3-yl)-2,6-difluorobenzyl)-16,16,16-trifluoro-9-hydroxy-15,15-dimethyl-8-(4-(6-((1R,4R)-5-(oxetan-3-yl)-2,5-diazabicyclo[2.2.1]heptan-2-yl)pyridin-3-yl)benzyl)-3,6,13-trioxo-5-(1,1,1-trifluoro-2-methylpropan-2-yl)-2-oxa-4,7,11,12-tetraazahexadecan-14-yl)carbamate] | – | EC50 (Human immunodeficiency virus 1, MT4, 120 h): 10.5 nM
8 | COC(=O)N[C@H](C(=O)N[C@@H](Cc1ccc(-c2cnn(C(F)F)c2)cc1)[C@@H](O)CN(Cc1c(F)cc(-c2cnn(C(F)F)c2)cc1F)NC(=O)[C@@H](NC(=O)OC)C(C)(C)C(F)(F)F)C(C)(C)C(F)(F)F [Example 211, Methyl ((5S,8S,9S,14S)-11-(4-(1-(difluoromethyl)-1H-pyrazol-4-yl)-2,6-difluorobenzyl)-8-(4-(1-(difluoromethyl)-1H-pyrazol-4-yl)benzyl)-16,16,16-trifluoro-9-hydroxy-15,15-dimethyl-3,6,13-trioxo-5-(1,1,1-trifluoro-2-methylpropan-2-yl)-2-oxa-4,7,11,12-tetraazahexadecan-14-yl)carbamate] | 5.75 nM | –
9 | COC(=O)N[C@H](C(=O)N[C@@H](Cc1ccc(C#Cc2ccc(N3CC4CCC(C3)N4C(=O)[C@@H]3CCCO3)nc2)cc1)[C@@H](O)CN(Cc1c(F)cc(-c2cnc(F)c(F)c2)cc1F)NC(=O)[C@@H](NC(=O)OC)C(C)(C)C)C(C)(C)C [Example 64, Methyl ((5S,8S,9S,14S)-5-(tert-butyl)-11-(4-(5,6-difluoropyridin-3-yl)-2,6-difluorobenzyl)-9-hydroxy-15,15-dimethyl-3,6,13-trioxo-8-(4-((6-(8-((S)-tetrahydrofuran-2-carbonyl)-3,8-diazabicyclo[3.2.1]octan-3-yl)pyridin-3-yl)ethynyl)benzyl)-2-oxa-4,7,11,12-tetraazahexadecan-14-yl)carbamate] | 5.4 nM | –
